In patent US10800733B2, “Acetophenone compound, preparation method therefor, and application thereof in blood lipid regulation” (Shanghai Bioenergy Medicine Science & Technology Co., Ltd., priority 2017, dated 2020):

System: hyperlipidemia of SD rats
Assay: Therapeutic effect on hyperlipidemia of SD rats (lipid emulsion model)
Type: in vivo
Settings: for HDL-C (high density lipoprotein) / LDL-C (low density lipoprotein) / TG (serum triglyceride) / CHO (serum cholesterol): 21 days of continuous administration with lipid emulsion, fasted 12 h, serum, X ± SD, 5 animals per group; for blood lipid-reducing effect (in words) / reduction ratio of cholesterol (blood lipid-reducing effect): 21 days; for blood lipid-reducing effect (in words): hyperlipidemic SD rats, as shown by Table 1; for reduction ratio of cholesterol (blood lipid-reducing effect): (CHO of Model group - CHO of pharmaceutical-administrated group)/CHO of Model group*100%
Experimental: 1. Therapeutic Effect on Hyperlipidemia of SD Rats
Preparation process of lipid emulsion: 500 g of lard oil was taken, placed in a container, and heated to melt. When the temperature rose to 100° C., 200 g of cholesterol was added. After complete dissolution, 20 g of propylthiouracil was further added. The resulted mixture was stirred well, and added with 500 ml of Tween 80 after dissolution, resulting in an oil phase. At the same time, 600 mL of distilled water and 400 mL of 1,2-propanediol were taken and heated to 60° C. in a water bath, and then was added with 40 g of sodium deoxycholate. The resulted mixture was stirred well until complete dissolution was achieved, so as to give an aqueous phase. The aqueous phase was added into the oil phase and mixed well to give a lipid emulsion.
Process for modeling: Animals were fed adaptively for 3 days. Then, according to the body weight, 5 animals were selected as control and the remaining animals were intragastrically administered with the lipid emulsion during 9:00 to 11:00 am every day with 1 mL/100 g body weight for 2 weeks. After fasted for 12 hours, 1 mL of blood was collected from the orbits of the animals, and was determined by Hitachi Automatic Biochemical Analyzer 7080 for serum cholesterol (CHO), triglyceride (TG), low density lipoprotein (LDL-C) and high density lipoprotein (HDL-C). The animals having 4-7 mmol/L of CHO were used in the experiments.
The animals were continued with the intragastric administration of the lipid emulsion, and at the same time, the pharmaceutical-administered groups were administrated with the corresponding doses of pharmaceuticals, while the Model group was administrated with an equal volume of the solvent. The animals were administrated with the lipid emulsion in the morning and pharmaceuticals in the afternoon. The animals were measured for the body weight every Monday, and were observed. After 21 days of continuous administration, the animals were fasted for 12 hours. Then, 1 mL of blood was collected from the orbits, and was determined by Hitachi Automated Biochemical Analyzer 7080 for serum cholesterol (CHO), triglyceride (TG), low density lipoprotein (LDL-C) and high density lipoprotein (HDL-C).
The controls used in this experiment comprised Compound A and Simvastatin (also referred to as Sim herein).
The formula for calculating the blood lipid-reducing effect is: (CHO of Model group —CHO of pharmaceutical-administrated group)/CHO of Model group*100%. […] In this experiment, the effects of the compounds obtained herein for regulating blood lipids can be determined by using the blood cholesterol reduction as the main indicator, with reference to the decrease of triglyceride.

Compound	HDL-C (high density lipoprotein) (80 mg/kg) [mmol/L]	LDL-C (low density lipoprotein) (80 mg/kg) [mmol/L]	TG (serum triglyceride) (80 mg/kg) [mmol/L]	blood lipid-reducing effect (in words) (80 mg/kg)	reduction ratio of cholesterol (blood lipid-reducing effect) (80 mg/kg) [%]	CHO (serum cholesterol) (80 mg/kg) [mmol/L]	CHO (serum cholesterol) (10 mg/kg) [mmol/L]	HDL-C (high density lipoprotein) (10 mg/kg) [mmol/L]	LDL-C (low density lipoprotein) (10 mg/kg) [mmol/L]	TG (serum triglyceride) (10 mg/kg) [mmol/L]
CC(=O)c1ccc(NC(=O)C(C)(C)CCCOc2cc(C)ccc2C)cc1 [Compound 01]	2.02 ± 0.27	3.07 ± 1.25	0.47 ± 0.27	significantly reduce the level of cholesterol	59.75					
CC(=O)c1ccc(O)c(NC(=O)C(C)(C)CCCOc2cc(C)ccc2C)c1 [Compound 02]	1.94 ± 0.49	3.18 ± 0.71	0.51 ± 0.19	significantly reduce the level of cholesterol	54.40	4.86 ± 1.08				
CC(=O)c1ccc(O)c(NC(=O)c2cccnc2)c1 [Compound 03]	1.81 ± 0.27	3.14 ± 1.06	0.71 ± 0.16	significantly reduce the level of cholesterol	57.22	4.56 ± 1.24				
CC(=O)c1ccc(NC(=O)C(C)(C)Oc2ccc(Cl)cc2)cc1 [Compound 04]	2.00 ± 0.52	3.27 ± 1.34	0.50 ± 0.15	significantly reduce the level of cholesterol	54.03	4.90 ± 1.09				
CC(=O)c1ccc(O)c(OC(=O)c2cccnc2)c1 [Compound 05]	1.95 ± 0.50	3.12 ± 0.34	0.56 ± 0.23	significantly reduce the level of cholesterol	56.56	4.63 ± 0.41				
Cc1ccc(C)c(OCCCC(C)(C)C(=O)NCC(=O)c2ccc(O)cc2)c1 [Compound A, reference compound]	1.41 ± 0.28	4.97 ± 1.07	0.58 ± 0.11		42.30	6.15 ± 2.12				
CCC(C)(C)C(=O)O[C@H]1C[C@@H](C)C=C2C=C[C@H](C)[C@H](CC[C@@H]3C[C@@H](O)CC(=O)O3)[C@H]21 [Sim, Simvastatin, reference compound]							6.28 ± 0.76	1.65 ± 0.26	4.54 ± 0.36	0.60 ± 0.07
